Source: paper PMC7296983 (Journal of medicinal chemistry, 2019)

Experiments:
NNMT [1] = target: T1, NNMT (Homo sapiens, UniProt P40261); test: SAH hydrolase; assay type: biochemical; settings: for activity compared to respective parent compound 1g, 1h and 3a: aspartic replaced by glutamic amino acid portion
T1 sequence (P40261 1-264): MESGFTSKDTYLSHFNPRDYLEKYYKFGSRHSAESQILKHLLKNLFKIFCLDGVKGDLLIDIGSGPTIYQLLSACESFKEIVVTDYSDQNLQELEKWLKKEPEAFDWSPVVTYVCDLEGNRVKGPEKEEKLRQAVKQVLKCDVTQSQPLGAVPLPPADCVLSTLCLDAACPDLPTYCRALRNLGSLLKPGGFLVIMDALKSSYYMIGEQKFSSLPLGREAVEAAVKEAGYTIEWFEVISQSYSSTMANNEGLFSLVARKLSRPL

NNMT [2] = settings: cited from earlier work
HCT116 = assay type: in vitro ADME; settings: human, 100 μM
NNMT [3] = settings: cited from earlier work; remark: listed apart in the source
TbPRMT7 = TbPRMT7 (Trypanosoma brucei brucei, UniProt Q582G4); test: biochemical
PRMT1 = PRMT1 (Homo sapiens, UniProt Q99873); test: Selectivity assay, SAHH-coupled fluorescence; assay type: biochemical
NTMT1 = target: T2, NTMT1 (Homo sapiens, UniProt Q9BV86); test: Selectivity assay, SAHH-coupled fluorescence; assay type: biochemical; settings: read-out: Enzyme activity (%)
T2 sequence (Q9BV86 1-223): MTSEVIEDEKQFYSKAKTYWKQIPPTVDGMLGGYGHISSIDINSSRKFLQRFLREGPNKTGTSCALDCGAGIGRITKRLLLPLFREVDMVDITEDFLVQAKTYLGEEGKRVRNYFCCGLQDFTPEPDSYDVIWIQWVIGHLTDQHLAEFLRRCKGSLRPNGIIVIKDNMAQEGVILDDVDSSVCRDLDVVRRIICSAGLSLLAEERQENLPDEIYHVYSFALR

NNMT [4] = settings: cited from earlier work; remark: listed apart in the source
[5] = substrate: NC(=O)c1cccnc1; test: purified protein, by the assay type; settings: other: substrate and cofactor, Figure S1; pH 7.5; 37.0 °C
SAH hydrolase = substrate: C[S+](CC[C@H](N)C(=O)[O-])C[C@H]1O[C@@H](n2cnc3c(N)ncnc32)[C@H](O)[C@@H]1O; test: SAH hydrolase; assay type: biochemical, human; settings: other: substrate and cofactor, Figure S1; pH 7.5; 37.0 °C

Sequence of PRMT1 (Q99873 whole entry, species assumed): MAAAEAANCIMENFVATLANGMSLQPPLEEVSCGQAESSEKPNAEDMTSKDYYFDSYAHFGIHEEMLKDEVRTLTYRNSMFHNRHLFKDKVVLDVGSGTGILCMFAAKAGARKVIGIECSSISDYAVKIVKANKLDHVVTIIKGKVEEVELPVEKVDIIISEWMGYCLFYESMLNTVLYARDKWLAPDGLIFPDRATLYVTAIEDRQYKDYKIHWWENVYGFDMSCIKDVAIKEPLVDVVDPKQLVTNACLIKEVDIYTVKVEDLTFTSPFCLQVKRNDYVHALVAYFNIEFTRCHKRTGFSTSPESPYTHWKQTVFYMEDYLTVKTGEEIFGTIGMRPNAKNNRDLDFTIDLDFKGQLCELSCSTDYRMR
Sequence of TbPRMT7 (Q582G4 whole entry): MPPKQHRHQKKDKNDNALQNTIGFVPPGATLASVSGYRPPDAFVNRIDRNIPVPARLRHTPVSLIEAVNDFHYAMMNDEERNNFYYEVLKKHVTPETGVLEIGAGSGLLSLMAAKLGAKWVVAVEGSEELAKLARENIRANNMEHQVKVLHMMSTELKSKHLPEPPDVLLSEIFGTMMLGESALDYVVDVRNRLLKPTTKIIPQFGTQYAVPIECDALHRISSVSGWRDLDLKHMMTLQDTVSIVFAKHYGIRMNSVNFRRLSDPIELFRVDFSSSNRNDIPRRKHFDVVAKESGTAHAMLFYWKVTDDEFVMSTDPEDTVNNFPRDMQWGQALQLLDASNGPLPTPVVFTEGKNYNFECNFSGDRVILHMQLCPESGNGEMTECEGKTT

COc1ccc(C(N)=O)cc1C#CCN(CC[C@H](N)C(=O)O)C[C@H]1O[C@@H](n2cnc3c(N)ncnc32)[C@H](O)[C@@H]1O [Compound 2b, (S)-2-amino-4-((((2R,3S,4R,5R)-5-(6-amino-9H-purin-9-yl)-3,4-dihydroxytetrahydrofuran-2-yl)methyl)(3-(5-carbamoyl-2-methoxyphenyl)prop-2-yn-1-yl)amino)butanoic acid]
loss of activity compared to 2a (NNMT [1]): 7 fold

c1ccc2cnccc2c1 [isoquinoline]
Km relative to nicotinamide (NNMT [2]): ~3 fold

COC(=O)c1cccc(CCCN(CC[C@H](N)C(=O)O)C[C@H]2O[C@@H](n3cnc4c(N)ncnc43)[C@H](O)[C@@H]2O)c1 [Compound 1j, (S)-2-amino-4-((((2R,3S,4R,5R)-5-(6-amino-9H-purin-9-yl)-3,4-dihydroxytetrahydrofuran-2-yl)methyl)(3-(3-(methoxycarbonyl)phenyl)propyl)amino)butanoic acid]
decrease of inhibitory activity compared with 1a (NNMT [1]): about 700 fold

NC(=O)c1cccc(CCCN(CC[C@H](N)C(=O)O)C[C@H]2O[C@@H](n3cnc4c(N)ncnc43)[C@H](O)[C@@H]2O)c1 [Compound 1a]
cell permeability (MS detection of cellular levels) (HCT116): barely exhibited enhanced cell permeability

NC(=O)c1cccc(CCN(CCC[C@H](N)C(=O)O)C[C@H]2O[C@@H](n3cnc4c(N)ncnc43)[C@H](O)[C@@H]2O)c1 [MS2734]
fold higher inhibitory activity than MS 2756 (NNMT [3]; aspartic amino acid replaced with glutamic acid in the SAM portion): over 10 fold | activity of previously reported bisubstrate analogs (NNMT [3]): moderate activities at μM range

Cc1ccc(C#CCN(CC[C@H](N)C(=O)O)C[C@H]2O[C@@H](n3cnc4c(N)ncnc43)[C@H](O)[C@@H]2O)cc1C(N)=O [Compound 2c, (S)-2-amino-4-((((2R,3S,4R,5R)-5-(6-amino-9H-purin-9-yl)-3,4-dihydroxytetrahydrofuran-2-yl)methyl)(3-(3-carbamoyl-4-methylphenyl)prop-2-yn-1-yl)amino)butanoic acid]
loss of activity compared to 2a (NNMT [1]): comparable activity

c1ccc2ncccc2c1 [Quinoline]
Km relative to nicotinamide (NNMT [2]): comparable to nicotinamide

NC(=O)c1cccc(C#CCN(CC[C@H](N)C(=O)O)C[C@H]2O[C@@H](n3cnc4c(N)ncnc43)[C@H](O)[C@@H]2O)c1 [Compound 2a, (S)-2-amino-4-((((2R,3S,4R,5R)-5-(6-amino-9H-purin-9-yl)-3,4-dihydroxytetrahydrofuran-2-yl)methyl)(3-(3-carbamoylphenyl)prop-2-yn-1-yl)amino)butanoic acid]
IC50 (TbPRMT7): > 33 µM | IC50 (PRMT1): > 100 µM | remaining activity at 3.7 µM (NTMT1): 64%

NC(=O)c1cccc(CCCN(CCC[C@H](N)C(=O)O)C[C@H]2O[C@@H](n3cnc4c(N)ncnc43)[C@H](O)[C@@H]2O)c1 [Compound 1d, (S)-2-amino-5-((((2R,3S,4R,5R)-5-(6-amino-9H-purin-9-yl)-3,4-dihydroxytetrahydrofuran-2-yl)methyl)(3-(3-arbamoylphenyl)propyl)amino)pentanoic acid]
decrease of inhibitory activity compared with 1a (NNMT [1]): 70 fold

NC(=O)c1cccc(C#C[C@@H](CC[C@H](N)C(=O)O)C[C@H]2O[C@@H](n3cnc4c(N)ncnc43)[C@H](O)[C@@H]2O)c1 [NS1]
Ki (NNMT [4]): ~0.0005 µM

NC(=O)c1cccc(C#CCN(CC[C@H](N)C(=O)O)C[C@H]2O[C@@H](n3cnc4c(N)ncnc43)[C@H](O)[C@@H]2O)c1 [Compound 2a]
cell permeability (MS detection of cellular levels) (HCT116): limited permeability

Cc1ccc(C(N)=O)cc1CCCN(CC[C@H](N)C(=O)O)C[C@H]1O[C@@H](n2cnc3c(N)ncnc32)[C@H](O)[C@@H]1O [Compound 1b, (S)-2-amino-4-((((2R,3S,4R,5R)-5-(6-amino-9H-purin-9-yl)-3,4dihydroxytetrahydrofuran-2-yl)methyl)(3-(5-carbamoyl-2methylphenyl)propyl)amino)butanoic acid]
decrease of inhibitory activity compared with 1a (NNMT [1]): more than 3 fold

NC(=O)c1cccc(C#CCNC[C@H]2O[C@@H](n3cnc4c(N)ncnc43)[C@H](O)[C@@H]2O)c1 [Compound 2d, 3-(3-((((2R,3S,4R,5R)-5-(6-amino-9H-purin-9-yl)-3,4-dihydroxytetrahydrofuran-2-yl)methyl)amino)prop-1-yn-1-yl)benzamide]
loss of activity compared to 2a (NNMT [1]): ~500 fold

NC(=O)c1cccc(CCN(CC[C@H](N)C(=O)O)C[C@H]2O[C@@H](n3cnc4c(N)ncnc43)[C@H](O)[C@@H]2O)c1 [MS2756]
activity of previously reported bisubstrate analogs (NNMT [3]): moderate activities at μM range

NC(=O)c1cccc(CCCCN(CCC[C@H](N)C(=O)O)C[C@H]2O[C@@H](n3cnc4c(N)ncnc43)[C@H](O)[C@@H]2O)c1 [Compound 3b, (S)-2-amino-5-((((2R,3S,4R,5R)-5-(6-amino-9H-purin-9-yl)-3,4-dihydroxytetrahydrofuran-2-yl)methyl)(4-(3-carbamoylphenyl)butyl)amino)pentanoic acid]
activity compared to respective parent compound 1g, 1h and 3a (NNMT [1]): either comparable or 3-fold decreased activities

Cc1ccc(CCCN(CC[C@H](N)C(=O)O)C[C@H]2O[C@@H](n3cnc4c(N)ncnc43)[C@H](O)[C@@H]2O)cc1C(N)=O [Compound 1c, (S)-2-amino-4-((((2R,3S,4R,5R)-5-(6-amino-9H-purin-9-yl)-3,4dihydroxytetrahydrofuran-2-yl)methyl)(3-(3-carbamoyl-4methylphenyl)propyl)amino)butanoic acid]
decrease of inhibitory activity compared with 1a (NNMT [1]): marginally affected the inhibition

Nc1ncnc2c1ncn2[C@@H]1O[C@H](CN(CCCc2ccc3ccccc3c2)CCC[C@H](N)C(=O)O)[C@@H](O)[C@H]1O [Compound 1f, (S)-2-amino-5-((((2R,3S,4R,5R)-5-(6-amino-9H-purin-9-yl)-3,4-dihydroxytetrahydrofuran-2-yl)methyl)(3-(naphthalen-2-yl)propyl)amino)pentanoic acid]
activity compared to respective parent compound 1g, 1h and 3a (NNMT [1]): either comparable or 3-fold decreased activities

Nc1ncnc2c1ncn2[C@@H]1O[C@H](CN(CCCc2cccc3ccccc23)CCC[C@H](N)C(=O)O)[C@@H](O)[C@H]1O [Compound 1e, (S)-2-amino-5-((((2R,3S,4R,5R)-5-(6-amino-9H-purin-9-yl)-3,4-dihydroxytetrahydrofuran-2-yl)methyl)(3-(naphthalen-1-yl)propyl)amino)pentanoic acid]
activity compared to respective parent compound 1g, 1h and 3a (NNMT [1]): either comparable or 3-fold decreased activities

Cc1ccncc1C(N)=O [4-methylnicotinamide]
Km relative to nicotinamide (NNMT [2]): comparable to nicotinamide

B1: NNMT (Homo sapiens) (protein)
chain: T1 sequence (P40261 1-264)
Km [5]: 10 µM | Km (SAH hydrolase): 10 µM
